Read-outs that look alike come from different tables or passages of the source.
How the values were obtained:
[1] = tested on: NDD-CKD subjects with Hb ≤ 11.0 g/dL; design: method as in ref 34 (a number printed in a supplementary file, which may have a reference list of its own: not looked up in the article's list); details: 4 weeks, cited from earlier work
[2] = tested on: patients with NDD CKD and Hb < 10.0 g/dL; design: method as in ref 38 (a number printed in a supplementary file, which may have a reference list of its own: not looked up in the article's list); details: TIW, 9 weeks, cited from earlier work
[3] = tested on: patients with NDD CKD (stage 3 or 4) and Hb ≤ 10.5 g/dL; design: method as in ref 36 (a number printed in a supplementary file, which may have a reference list of its own: not looked up in the article's list); details: after 16 weeks of treatment, 143 subjects evaluable for efficacy; cited from earlier work
[4] = tested on: patients with ESRD and Hb ≤ 10.0 g/dL; design: method as in ref 37 (a number printed in a supplementary file, which may have a reference list of its own: not looked up in the article's list); details: cited from earlier work
[5] = tested on: patients with stable end-stage renal disease (ESRD) treated with haemodialysis; design: method as in ref 35 (a number printed in a supplementary file, which may have a reference list of its own: not looked up in the article's list); details: cited from earlier work
[6] = tested on: HIF target genes in Hep3b cells; assay: RT-qPCR of HIF target genes; type: cell-based, human; details: 24 hours, 2.5 or 10 μM
Method: The upregulation of HIF-α isoforms has multiple downstream effects.[1],[30],[86],[87] To investigate whether the inhibitors have differential effects on HIF target genes we measured their mRNA levels for a set of HIF target genes after 24 hours in Hep3b cells. The panel aimed to cover a small, yet representative, HIF target gene set. […]. […]. page 16:
Cells were lysed using the TRI reagent® (Sigma T9424). RNA was then extracted by phase separation following the manufacturer’s protocol. Extracted RNA was treated with the RNase-free DNase I (DNA-free™ DNA Removal Kit, Applied Biosystems AM1906) to eliminate contaminating DNA. For reverse transcription, 1μg of DNase-treated RNA samples were used for cDNA synthesis using High-Capacity cDNA Reverse Transcription Kit (Thermo Fisher Scientific 4368814). […] Quantitation of 18 relative expression level was analyzed using the ΔΔCT method with HPRT as a reference gene using; statistical analyses of the biological and technical repeats were calculated using StepOne Software (version 2.2.2). […]
Cell seeding and inhibitor treatments were performed in parallel in the same manner as used for the HRE reporter assay (see above). […] Fluorescence signals were measured with an excitation wavelength of 544 nm and emission wavelength of 590 nm using a FLUOstar Omega Microplate Reader (BMG

[7] = tested on: patients with anaemia secondary to CKD stage 3 or 4; design: method as in ref 32 (a number printed in a supplementary file, which may have a reference list of its own: not looked up in the article's list); details: 6 weeks, cited from earlier work
[8] = tested on: patients with non-dialysis dependent (NDD) CKD (stage 3a/b, 4, or 5); design: method as in ref 33 (a number printed in a supplementary file, which may have a reference list of its own: not looked up in the article's list); details: starting 450 mg daily, titrated, 20 weeks; cited from earlier work
[9] = tested on: subjects with non-dialysis CKD stage 3-5 and Hb < 10.5 g/dL; design: method as in ref 39 (a number printed in a supplementary file, which may have a reference list of its own: not looked up in the article's list); details: all Molidustat doses (25, 50, 75 mg daily; 25, 50 mg BID), 16 weeks; cited from earlier work
[10] = tested on: pre-dialysis subjects already on Darbepoetin treatment; design: method as in ref 40 (a number printed in a supplementary file, which may have a reference list of its own: not looked up in the article's list); details: 16 weeks; cited from earlier work
[11] = tested on: patients with NDD CKD stage 3-5 and Hb 8.5-11.0 g/dL; design: method as in ref 42 (a number printed in a supplementary file, which may have a reference list of its own: not looked up in the article's list); details: highest dose (5 mg) daily, over 4 weeks; cited from earlier work
[12] = tested on: patients with haemodialysis CKD, Hb 9.5-12.0 g/dL; design: method as in ref 42 (a number printed in a supplementary file, which may have a reference list of its own: not looked up in the article's list); details: 5 mg daily, 4 weeks; cited from earlier work
[13] = tested on: patients with haemodialysis CKD, Hb 9.5-12.0 g/dL; design: method as in ref 43 (a number printed in a supplementary file, which may have a reference list of its own: not looked up in the article's list); details: cited from earlier work
Hep3b cells = assay: Hep3b cell viability / cell density after prolonged treatment; type: cell-based, human
Method: Cell seeding and inhibitor treatments were performed in parallel in the same manner as used for the HRE reporter assay (see above). Resazurin (Sigma, R7017) was used for detection of cell viability at a final concentration of 10μg/ml. Cells were incubated with Resazurin at 37°C
Hep3b cell viability after prolonged treatment of PHD inhibitors. Cell viability

Cc1nc(C(=O)NCC(=O)O)c(O)c2ccc(Oc3ccccc3)cc12 [FG-4592]
subjects with Hb increase ≥ 1 g/dL from baseline ([1]; 0.7 mg/kg BIW): 30% | subjects with Hb increase ≥ 1 g/dL from baseline ([1]; 0.7 mg/kg TIW): 58% | subjects with Hb increase ≥ 1 g/dL from baseline ([1]; 1.0 mg/kg BIW): 60% | subjects with Hb increase ≥ 1 g/dL from baseline ([1]; 1.0 mg/kg TIW): 40% | subjects with Hb increase ≥ 1 g/dL from baseline ([1]; 1.5 mg/kg BIW): 80% | subjects with Hb increase ≥ 1 g/dL from baseline ([1]; 1.5 mg/kg TIW): 91% | subjects with Hb increase ≥ 1 g/dL from baseline ([1]; 2.0 mg/kg BIW): 100% | subjects with Hb increase ≥ 1 g/dL from baseline ([1]; 2.0 mg/kg TIW): 100% | subjects with Hb increase ≥ 1 g/dL from baseline ([2]; high-dose cohort): 87.1% | subjects with Hb increase ≥ 1 g/dL from baseline ([2]; low-dose cohort): 80% | subjects with Hb increase ≥ 1 g/dL from baseline and Hb of ≥ 11.0 g/dL (Hb response) by week 17 [3]: 91.6% | subjects with Hb increase ≥ 1 g/dL (Hb response) from baseline ([4]; all Roxadustat treated subjects, 12 weeks): 96% | median time to Hb response ([4]; each cohort): 3 weeks | subjects with Hb increase ≥ -0.5 g/dL from baseline ([5]; Part 1, 6-week treatment, Roxadustat 1.5-2.0 mg/kg pool versus Epoetin Alfa arm): 79% | average Roxadustat for Hb level maintenance (mean Hb ≥ 11.0 g/dL during last 4 weeks of treatment) ([5]; Part 2, 19-week treatment): 1.68 ± 0.65 mg/kg TIW

O=C(O)CNC(=O)c1ncc(-c2cccc(Cl)c2)cc1O [Vadadustat]
upregulation of assayed HIF target genes [6]: failed to obviously upregulate assayed HIF target genes | subjects with Hb increase ≥ 1 g/dL from baseline ([7]; 240 mg daily): 31% | subjects with Hb increase ≥ 1 g/dL from baseline ([7]; 370 mg daily): 40% | subjects with Hb increase ≥ 1 g/dL from baseline ([7]; 500 mg daily): 65% | subjects with Hb increase ≥ 1 g/dL from baseline ([7]; 630 mg daily): 78% | subjects with Hb increase ≥ 1.2 g/dL from baseline or mean Hb ≥ 11.0 g/dL during last 2 weeks of treatment [8]: 55%

O=c1c(-n2ccnn2)c[nH]n1-c1cc(N2CCOCC2)ncn1 [Molidustat]
Hb increase [9]: at least 1.14 g/dL | mean change in Hb to evaluation period [10]: 0.46 g/dL

O=C(O)CNC(=O)C1C(=O)N(C2CCCCC2)C(=O)N(C2CCCCC2)C1=O [GSK1278863]
Hb increase [11]: ~ 1.0 g/dL | Hb level maintenance after switch from rhEPO [12]: maintained | mean Hb increase from baseline at week 4 ([13]; 4 mg daily): -0.28 g/dL | mean Hb increase from baseline at week 4 ([13]; 6 mg daily): -0.01 g/dL | mean Hb increase from baseline at week 4 ([13]; 8 mg daily): 0.54 g/dL | mean Hb increase from baseline at week 4 ([13]; 10 mg daily): 0.97 g/dL

CC(C)(C)OC(=O)c1ccc(-n2[nH]cc(-n3ccnn3)c2=O)nc1 [IOX4]
cell viability after prolonged treatment (Hep3b cells; 10 μM, 24, 48, 72 hours): significant reduction in cell viability | reduction in cell density versus the other 3 inhibitors (judged visually) (Hep3b cells; 10 μM, 72nd hour): 40–50%
